molecular target: C-C chemokine receptor type 5 (Homo sapiens, UniProt P51681); experiment: Inhibition of RANTES binding to the human C-C chemokine receptor type 5 (CCR5)
Sequence (P51681 whole entry): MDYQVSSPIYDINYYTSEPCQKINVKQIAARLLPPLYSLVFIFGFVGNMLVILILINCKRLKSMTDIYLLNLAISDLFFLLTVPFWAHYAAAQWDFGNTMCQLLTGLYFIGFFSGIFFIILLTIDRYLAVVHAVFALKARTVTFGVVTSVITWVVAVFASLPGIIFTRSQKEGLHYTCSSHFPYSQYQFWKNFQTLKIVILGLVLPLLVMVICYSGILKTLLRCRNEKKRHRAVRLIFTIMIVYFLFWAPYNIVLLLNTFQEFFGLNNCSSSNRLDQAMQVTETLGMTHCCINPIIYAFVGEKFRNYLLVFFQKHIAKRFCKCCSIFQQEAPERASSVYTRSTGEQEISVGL

Ki [nM]	SMILES
8	C=C(c1ccc(Br)cc1)C1CCN(C2(C)CCN(C(=O)c3c(C)cccc3C)CC2)CC1
2	CO/N=C(/c1ccc(Br)cc1)C1CCN(C2(C)CCN(C(=O)c3c(C)cccc3C)CC2)CC1
8.8	CCO/N=C(/c1ccc(Br)cc1)C1CCN(C2(C)CCN(C(=O)c3c(C)c[n+]([O-])cc3C)CC2)CC1
2.3	CCO/N=C(/c1ccc(Br)cc1)C1CCN(C2(C)CCN(C(=O)c3c(C)cncc3C)CC2)CC1
19	CO/N=C(/c1ccc(Br)cc1)C1CCN(C2(C)CCN(C(=O)c3c(C)cc[n+]([O-])c3C)CC2)CC1
1.1	CCO/N=C(/c1ccc(Br)cc1)C1CCN(C2(C)CCN(C(=O)c3c(C)ccnc3C)CC2)CC1
4	Cc1cccc(C)c1C(=O)N1CCC(C)(N2CCC(/C(=N\OC(C)C)c3ccc(Br)cc3)CC2)CC1
4.5	CO/N=C(/c1ccc(Br)cc1)C1CCN(C2(C)CCN(C(=O)c3c(C)cccc3N)CC2)CC1
> 30	CCO/N=C(/c1ccc(Br)cc1)C1CCN(C2(C)CCN(C(=O)c3c(C)cc[nH]c3=O)CC2)CC1
> 30	Cc1cccc(C)c1C(=O)N1CCC(C)(N2CCC(/C(=N\Oc3ccccc3)c3ccc(Br)cc3)CC2)CC1
33	CCOC(=O)CO/N=C(/c1ccc(Br)cc1)C1CCN(C2(C)CCN(C(=O)c3c(C)cccc3C)CC2)CC1
2	CCO/N=C(/c1ccc(Br)cc1)C1CCN(C2(C)CCN(C(=O)c3c(C)cccc3C)CC2)CC1
9	Cc1cccc(C)c1C(=O)N1CCC(C)(N2CCC(/C(=N\OC(C)(C)C)c3ccc(Br)cc3)CC2)CC1
33	CNC(=O)CO/N=C(/c1ccc(Br)cc1)C1CCN(C2(C)CCN(C(=O)c3c(C)cccc3C)CC2)CC1

The remaining lines, values behind:

SMILES	Ki [nM]
Cc1cccc(C)c1C(=O)N1CCC(C)(N2CCC(Cc3ccc(-c4ccccc4)cc3)CC2)CC1	360
Cc1cccc(C)c1C(=O)N1CCC(C)(N2CCC(Cc3ccc(Cl)cc3)CC2)CC1	68
COc1ccc(CC2CCN(C3(C)CCN(C(=O)c4c(C)cccc4C)CC3)CC2)cc1	155
Cc1cccc(C)c1C(=O)N1CCC(C)(N2CCC(Cc3ccc(I)cc3)CC2)CC1	33
Cc1cccc(C)c1C(=O)N1CCC(C)(N2CCC(Cc3ccc(S(C)(=O)=O)cc3)CC2)CC1	33
Cc1cccc(C)c1C(=O)N1CCC(C)(N2CCC(Cc3ccc(C(F)(F)F)cc3)CC2)CC1	25
Cc1ccc(CC2CCN(C3(C)CCN(C(=O)c4c(C)cccc4C)CC3)CC2)cc1	110
Cc1cccc(C)c1C(=O)N1CCC(C)(N2CCC(C(C)c3ccc(Br)cc3)CC2)CC1 (configuration not stated)	62
C[C@H]1CN(C2(C)CCN(C(=O)c3c(N)cccc3Cl)CC2)CCN1[C@@H](C)c1ccc(I)cc1	12
Cc1cccc(C)c1C(=O)N1CCC(C)(N2CCN([C@@H](C)c3ccc(C(F)(F)F)cc3)[C@@H](C)C2)CC1	1
CCO/N=C(/c1ccc(Br)cc1)C1CCN(C2(C)CCN(C(=O)c3cccnc3C)CC2)CC1	26
CCO/N=C(/c1ccc(S(C)(=O)=O)cc1)C1CCN(C2(C)CCN(C(=O)c3c(C)cc[n+]([O-])c3C)CC2)CC1	20
CCO/N=C(/c1ccc(Br)cc1)C1CCN(C2(C)CCN(C(=O)c3c(Cl)c[n+]([O-])cc3Cl)CC2)CC1	1.2
CO/N=C(/c1ccc(S(C)(=O)=O)cc1)C1CCN(C2(C)CCN(C(=O)c3c(C)cc[n+]([O-])c3C)CC2)CC1	30
CCO/N=C(/c1ccc(Br)cc1)C1CCN(C2(C)CCN(C(=O)c3c(C)cc(C)nc3O)CC2)CC1	43
CO/N=C(/c1ccc(Br)cc1)C1CCN(C2(C)CCN(C(=O)c3c(C)ccnc3C)CC2)CC1	1.1
CCO/N=C(/c1ccc(Br)cc1)C1CCN(C2(C)CCN(C(=O)c3c(C)ccc[n+]3[O-])CC2)CC1	16

SMILES	Ki [nM]
C[C@H]1CN(C2CCN(C(=O)c3c(F)cccc3I)CC2)CCN1[C@@H](C)c1ccc(I)cc1	1300
CCO/N=C(/c1ccc(Br)cc1)C1CCN(C2(C)CCN(C(=O)c3ccc[n+]([O-])c3C)CC2)CC1	> 30
CCO/N=C(/c1ccc(Br)cc1)C1CCN(C2(C)CCN(C(=O)c3c(C)cc(-c4ccncc4)cc3C)CC2)CC1	0.1
CCO/N=C(/c1ccc(Br)cc1)C1CCN(C2(C)CCN(C(=O)c3cccnc3)CC2)CC1	> 30
CCO/N=C(/c1ccc(Br)cc1)C1CCN(C2(C)CCN(C(=O)c3ccc[n+]([O-])c3)CC2)CC1	> 30
CO/N=C(/c1ccc(Br)cc1)C1CCN(C2(C)CCN(C(=O)c3c(C)ncnc3C)CC2)CC1	4.7
CCO/N=C(/c1ccc(F)cc1)C1CCN(C2(C)CCN(C(=O)c3c(C)cc[n+]([O-])c3C)CC2)CC1	30
CCO/N=C(/c1ccc(Br)cc1)C1CCN(C2(C)CCN(C(=O)c3c(C)ncnc3C)CC2)CC1	2.2
CCO/N=C(/c1ccc(C(F)(F)F)cc1)C1CCN(C2(C)CCN(C(=O)c3c(C)cc[n+]([O-])c3C)CC2)CC1	3.8
Cc1cccc(C)c1C(=O)N1CCC(C)(N2CCC(Cc3ccc(OC(F)(F)F)cc3)CC2)CC1	55
Cc1cccc(O)c1C(=O)N1CCC(C)(N2CCN([C@@H](C)c3ccc(I)cc3)[C@@H](C)C2)CC1	7
CCO/N=C(/c1ccc(Br)cc1)C1CCN(C2(C)CCN(C(=O)c3c(C)cc(O)nc3C)CC2)CC1	7
CO/N=C(/c1ccc(Br)cc1)C1CCN(C2(C)CCN(C(=O)c3c(N)cccc3Cl)CC2)CC1	3.4
CCO/N=C(/c1ccc(Br)cc1)C1CCN(C2(C)CCN(C(=O)c3c(Br)c[n+]([O-])cc3Br)CC2)CC1	0.7
CCO/N=C(/c1ccc(Cl)cc1)C1CCN(C2(C)CCN(C(=O)c3c(C)cc[n+]([O-])c3C)CC2)CC1	5.6
CCO/N=C(/c1ccc(Br)cc1)C1CCN(C2(C)CCN(C(=O)c3c(F)cccc3C(F)(F)F)CC2)CC1	3

From ChEMBL document CHEMBL1144903, “Generation of predictive pharmacophore models for CCR5 antagonists: study with piperidine- and piperazine-based compounds as a new class of HIV-1 entry inhibitors” (J Med Chem, 2003)
